# Source: patent US20040077563A1, “Methods of drug delivery to hepatocytes and treatment of flaviviridae infections” (priority 2003, published 2004)
# Legend:
# [1] = system: Hep3B, HepG2 & Huh7 cell lines; assay: Uptake of [3H]-labeled nucleosides by different human liver cell lines; type: cell-based; conditions: for nucleoside uptake into hepatocytes (radioactivity in the cell lysate): Hep3B, HepG2, Huh7, 20 μCi/ml [3H]-nucleoside plus 10 μM cold nucleoside, 4 hr at 37° C, FIG. 1
# Description: In order to determine whether Ribavirin and Viramidine™ use a similar mode of entry in human hepatocytes, the inventors performed several experiments. First, various strains of hepatocytes (Hep3B, HepG2, and Huh7) were incubated with various nucleotide analogs (e.g., Ribavirin, Levovirin (the L-isomer of Ribavirin), and Viramidine™), and the result of the nucleoside uptake experiments are illustrated in FIG. 1.
# Hep3B, HepG2 & Huh7 cell lines were used at a concentration of 50,000 cells/well in a 24-wells plate, and incubated with [^3H]-labeled Ribavirin, Levovirin™, and Viramidine™ (20 μCi/ml) plus 10 μM cold nucleoside for 4 hr at 37° C. The cells were washed with PBS and lysed, and the radioactivity in the cell lysate (i.e.the amount of labeled nucleoside taken up by the cells) was determined in a scintillation counter.
# HepG2 cells = assay: Nucleoside competition assay; type: cell-based, human; conditions: cold competitor 0, 100 μM, 500 μM, 2 mM, 2 hrs at 37° C
# Description: To address this question, the inventors performed uptake competition experiments in which radiolabeled Ribavirin or Viramidine™ competed for uptake with unlabeled Viramidine™ or Ribavirin, respectively.
# 50,000 HepG2 cells/well were placed in a 24-wells plate and incubated with [3H]-labeled nucleoside (20 μCi/ml). Competition was performed with increasing concentrations of cold (0, 100 μM, 500 μM, and 2 mM) competitor nucleoside. Incubation time was 2 hrs at 37° C. The cells were then washed with PBS and lysed. The radioactivity in the cell lysate (i.e. the amount of labeled nucleoside taken up by the cells) was determined in a scintillation counter.
# [2] = system: deaminase/deamidase activity in hepatocytes; assay: Conversion of carboxamidine to carboxamide in the liver; type: in vitro ADME; conditions: unpublished results
# Description: Therefore, it is contemplated that by including a carboxamidine group to a molecule and exploiting the relatively high deaminase/deamidase acitivity of hepatocytes, molecules may be specifically targeted to the liver. With respect to contemplated molecules having a —C(NR1)(NR2R3) it should be appreciated that various deaminase/deamidase acitivities of hepatocytes are sufficiently high to convert such compounds from a prodrug form into an active drug form (e.g., drug activity is increased when carboxamide group is present).
# erythrocytes [3] = assay: Uptake into erythrocytes; type: cell-based; conditions: data not shown
# Description: Thus, it should be appreciated that toxicity of a nucleoside or nucleotide compound can be reduced by modifying the compound to include a carboxamidine moiety or modified carboxamidine moiety as described above, wherein target cells for modified compounds include a transporter system, which non-target cells lack. […] It is contemplated that this difference in uptake is attributable to the lack of a Viramidine™ uptake and/or transporter system.
# erythrocytes [4] = conditions: stated as known for Ribavirin; cited from earlier work
# flaviviridae = assay: Inhibition of growth of flaviviridae in a cell containing medium; type: cell-based; conditions: added to a cell-containing medium; data not shown
# Description: The family of flaviviridae has recently gained special attention due to several occurrences of West Nile Virus encephalitis in the eastern part of the USA, resulting in at least 7 reported deaths and at least 62 cases of severe disease. Moreover, hepatitis C-like viruses (and the HCV virus) also belong to the family of flaviviridae, further adding to the significance of flaviviridae with respect to public and private health. While not wishing to be bound by a particular theory or hypothesis, it is contemplated that increased transport of Viramidine™*HCl is particularly beneficial for treatment of flaviridae-virus infections.
# Water solubility = type: physicochemical
# Description: It is contemplated that Viramidine™*HCl (in either D- or L-configuration) will be administered in any appropriate pharmaceutical formulation, and under any appropriate protocol. Thus, administration may take place orally, parenterally (including subcutaneous injections, intravenous, intramuscularly, by intrasternal injection or infusion techniques), by inhalation spray, or rectally, topically and so forth, and in dosage unit formulations containing conventional non-toxic pharmaceutically acceptable carriers, adjuvants and vehicles. By way of example, it is contemplated that Viramidine™*HCl can be formulated in admixture with a pharmaceutically acceptable carrier. For example, Viramidine™*HCl can be administered orally as pharmacologically acceptable salts. […] Conventional buffers such as phosphates, bicarbonates or citrates can be used for this purpose. Of course, one of ordinary skill in the art may modify the formulations within the teachings of the specification to provide numerous formulations for a particular route of administration without rendering Viramidine™*HCl unstable or compromising their therapeutic activity. In particular, the modification of Viramidine™*HCl to render it more soluble in water or another vehicle, for example, may be easily accomplished by minor modifications (salt formulation, esterification, etc.) that are well within the ordinary skill in the art. […]
structure (smiles),measurement,setting,value
"N=C(N)c1ncn([C@@H]2O[C@H](CO)[C@@H](O)[C@H]2O)n1 [Viramidine™, 1-beta-D-ribofuranosyl-1,2,4-triazole-3-carboxamidine]",nucleoside uptake into hepatocytes (radioactivity in the cell lysate),[1],taken up to a significantly higher degree in all three cell lines
same,"rate of uptake into, and overall concentration in, hepatocytes as compared to Ribavirin",[1]; hepatocytes,significantly higher
same,competition of [3H]-Ribavirin uptake by unlabeled competitor,HepG2 cells; FIG. 2,at least partial competition
same,conversion in the liver,[2],converted in the liver to Ribavirin
same,uptake into erythrocytes,erythrocytes [3],not taken up into erythrocytes
"NC(=O)c1ncn([C@@H]2O[C@H](CO)[C@@H](O)[C@H]2O)n1 [Ribavirin, 1-beta-D-ribofuranosyl-1,2,4-triazole-3-carboxamide, reference compound]",nucleoside uptake into hepatocytes (radioactivity in the cell lysate),[1],more efficiently taken up over the L-isomer of Ribavirin
same,competition of [3H]-Viramidine uptake by unlabeled competitor,HepG2 cells; FIG. 3,at least partial competition
same,uptake into erythrocytes (background statement),erythrocytes [4],readily taken up by erythrocytes
"Cl.N=C(N)c1ncn([C@@H]2O[C@H](CO)[C@@H](O)[C@H]2O)n1 [Viramidine™*HCl, 1-beta-D-ribofuranosyl-1,2,4-triazole-3-carboxamidine*HCl]",inhibition of growth of flaviviridae,flaviviridae,can be inhibited
same,water solubility,Water solubility,mostly water soluble
"NC(=O)c1ncn([C@H]2O[C@@H](CO)[C@H](O)[C@@H]2O)n1 [Levovirin, reference compound]",nucleoside uptake into hepatocytes (radioactivity in the cell lysate),[1],taken up into all of the tested hepatocytes
